Peptide text beside a SMILES is read from it. * marks the point of attachment. X1 = O=C1c2cccc(O)c2C(=O)c2c(O)cc(C(=O)*)cc21
Legend:
R28 cells [1] = test: Intracellular ROS, H2DCF-DA staining after OGD; type: cell-based; settings: 20 µM, 24 h before OGD, CLSM
Description: R28 cells were seeded at a density of 1 × 10^5 mL^−1 cells in 35‐mm glass‐bottom Petri dishes and incubated overnight. Before OGD injury, the cells were treated with Rh‐GFFYE, rhein, Nap‐GFFYE, or Ac‐GFFYE at a concentration of 20 µM for 24 h. The OGD‐injured cells were then assayed for intracellular ROS production by H2DCF‐DA staining. Briefly, the cells were treated with 10 µM H2DCF‐DA for 30 min in the cell culture incubator. To remove the unincorporated dye, the cells were washed with PBS and the oxidation of H2DCF‐DA was detected by CLSM.

R28 cells [2] = test: In vitro OGD model, cellular ATP content (CellTiter-Lumi Plus); type: cell-based; settings: 24 h pretreatment, varying concentrations (Rh-GFFYE 10, 20, 40 µM); n = 3
Description: (§1) The retinal precursor cell line R28 was purchased from Kerafast (Boston, MA, USA) and cultured according to the procedures recommended by the supplier. Briefly, the cells were grown and maintained in DMEM complete medium containing 420 mL DMEM, 15 mL sodium bicarbonate (Sigma‐Aldrich, St. Louis, MO, USA), 50 mL calf serum, 5 mL MEM non‐essential amino acids, 5 mL L‐glutamine (GIBCO, Grand Island, NY, USA), and 0.625 mL Gentamicin (80 mg mL^−1; Solarbio Life Sciences Co., Ltd, Beijing, China) at 37 °C in a humidified atmosphere containing 5% CO2. The stock solutions of Rh‐GFFYE and control compounds were diluted to varying concentrations with DMEM complete medium just before cell treatment.
An in vitro OGD model was constructed based on the method detailed by Ryou et al.^[ [56] ^] Briefly, R28 cells were cultured in a glucose‐free medium and subjected to hypoxia (1% O2, 5% CO2) for 24 h. […] The ATP levels were measured using a CellTiter‐Lumi Plus luminescent cell viability assay (Beyotime, Beijing, China). The cell membrane integrity of the R28 cells was evaluated by LDH release assay (Beyotime, Beijing, China).

[3] = pH between 8.0 and 9.4; cited from earlier work
Description: Herb‐derived natural products are regarded as promising drug resources due to their anti‐inflammatory and antioxidant effects.^[ [11] ^] Rhein (4,5‐dihydroxyanthraquinone‐2‐carboxylic acid), is an anthraquinone and one of the pharmacologically active components extracted from Rheum.^[ [12] ^] […] Due to its good anti‐apoptotic and anti‐inflammatory effects, rhein has also been used to treat ischemia/reperfus ...

R28 cells [4] = test: Mitochondrial membrane potential, JC-1 staining after OGD; type: cell-based; settings: 20 µM, 24 h prior to OGD; JC-1, CLSM
Description: A mitochondrial membrane potential assay kit with JC‐1 (Beyotime, Beijing, China) was used to monitor the changes in the mitochondrial membrane potential of R28 cells subjected to OGD following the procedure recommended by the supplier. Briefly, R28 cells were seeded in dishes at a density of 1 × 10^5 mL^−1 cells and cultured overnight. The cells were treated with Rh‐GFFYE, rhein, Nap‐GFFYE, or Ac‐GFFYE at a concentration of 20 µM for 24 h prior to OGD. Following treatment and recovery, the cells were washed three times with PBS and then incubated with 20 µM JC‐1 for 20 min at 37 °C. After removing the JC‐1 staining solution, the cells were washed three times with JC‐1 dyeing buffer, and 2 mL DMEM was added for CLSM imaging.

[5] = tested on: bone marrow‐derived macrophages (BMDMs); test: LPS-induced cytokine release, ELISA; type: cell-based, mouse; settings: 20 µM, LPS 100 ng/mL, 24 h
Description: The isolation of mouse BMDMs was performed according to the method of Pineda‐Torra et al.^[ [57] ^] Briefly, the femurs and tibias of C57BL/6 mice were carefully separated and transferred into PBS containing 10% penicillin/streptomycin. The BMDMs were flushed out with a syringe and filtered through a 70‐µm strainer. To further purify the BMDMs, lysis buffer was added to remove the red blood cells. The BMDMs were cultured in a DMEM medium containing macrophage colony‐stimulating factor (MCE, Monmouth Junction, NJ, USA).
BMDMs (1 × 10^5 mL^−1 cells in a volume of 1 mL per well in a 24‐well plate) were pretreated with Rh‐GFFYE, rhein, Nap‐GFFYE, and Ac‐GFFYE at a concentration of 20 µM for 1 h prior to the addition of LPS (100 ng mL^−1) for the specified times (6, 24, and 48 h). The supernatants were collected, and the concentrations of IL‐1β and IL‐6 in the culture medium were measured using ELISA kits (Beyotime, Beijing, China) according to the manufacturer's instructions.

rat model of RIR injury [6] = test: Rat RIR injury model, H&E staining of the retina; type: in vivo; settings: intravitreal 4 µL, 20 µM final in vitreous, 24 h after RIR; 7 days; n = 6
Description: (§2) Erythromycin eye ointment was used to prevent bacterial infection.
The changes in retinal morphology caused by RIR injury were visualized by H&E staining. At 7 days after the intravitreal injection of Rh‐GFFYE, the eyeballs were removed and then fixed in 4% paraformaldehyde. The eye tissue was then embedded in paraffin, and 4‐µm‐thick slices were prepared. The H&E staining procedure described previously was followed.^[ [59] ^]

rat model of RIR injury [7] = test: Rat RIR injury model, immunofluorescence of RGC markers (BRN3A, β‐III‐TUBULIN); type: in vivo; settings: 7 d after intravitreal injection; n = 6
Description: as §2
The RIR‐injured rats were euthanized at 7 days after the intravitreal injection of Rh‐GFFYE. Immediately after removal, the eyeball was fixed in 4% paraformaldehyde for 2 h at 4 °C, dehydrated overnight in 30% sucrose solution, embedded in an optimal cutting temperature compound embedding bottom box (17 × 17 × 5 mm), and stored at −80 °C. Slices with thicknesses of 8 µm were created using a frozen slicer at −22 °C. The slices were placed on adhesive slides and dried at room temperature for >30 min before proceeding to the next step. For immunofluorescent staining, the retinal sections were permeabilized with enhanced immunostaining permeabilization buffer (Beyotime, Beijing, China) for 20 min, blocked with blocking buffer (Beyotime, Beijing, China), and incubated overnight at 4 °C with the following primary antibodies: anti‐β‐III‐TUBULIN, anti‐IBA1, anti‐GFAP, anti‐BRN3A (Abcam, UK), anti‐CD86, and anti‐CD206 (Cell Signaling Technology, Danvers, MA, USA). After rinsing three times with PBS, the sections were incubated with secondary antibodies at room temperature for 2 h, rinsed three times with PBS, and counterstained with DAPI. Sealed with a cover glass, the slides were then observed by CLSM.

[8] = Concentration of rhein in retinas by UPLC-MS/MS; type: in vivo, rat
Description: To further evaluate the concentration of rhein in retinas, the retinas were collected at 7 and 21 days after a single intravitreal injection of Rh‐GFFYE. The retinas were homogenized using a cryogenic homogenizer (ServiceBio, Wuhan, China), and the supernatants were collected after centrifugation for further analysis. The samples were suspended in ethyl acetate and centrifuged for 5 min to obtain the supernatants which were then dried under nitrogen gas flow. The residues were dissolved with mobile phase solution and then quantified using the UPLC‐MS/MS (AB Sciex Triple Quad TM 4500 system, MA, USA) assay.

R28 cells [9] = test: Safety evaluation under normoxic conditions (ATP and LDH); type: cell-based; settings: 24 h
Description: as §1
An in vitro OGD model was constructed based on the method detailed by Ryou et al.^[ [56] ^] Briefly, R28 cells were cultured in a glucose‐free medium and subjected to hypoxia (1% O2, 5% CO2) for 24 h. The cells were then re‐oxygenated (21% O2, 5% CO2) for 6 h to simulate RIR. The ATP levels were measured using a CellTiter‐Lumi Plus luminescent cell viability assay (Beyotime, Beijing, China). The cell membrane integrity of the R28 cells was evaluated by LDH release assay (Beyotime, Beijing, China).

[10] = In vivo safety evaluation after intravitreal injection; design: species or system rat
Description: For safety evaluation, rats were intravitreally injected Rh‐GFFYE nanofibers. 7 days after injection, ERG was used to detect the retinal function and H&E staining was used to detect the morphology of retina. Orbital blood was taken to detect the contents of ALT and AST in plasma. The major organs (heart, liver, spleen, lung, kidney) were harvested for H&E staining to observe changes in each major organ.

[11] = In vivo retinal distribution by CLSM (Cy5.5 label); design: species or system rat
Description: To evaluate the distribution of Rh‐GFFYE in RIR‐injured and normal retinas, rats were divided into two groups. At 3, 7, 14, and 21 days after a single intravitreal injection of Cy5.5‐Rh‐GFFYE, the rats were killed and retinas were obtained. Retinal cryosections and retinal whole flat mounts were examined by CLSM to observe the distribution of Rh‐GFFYE in vivo.

rat model of RIR injury [12] = settings: in vivo
Description: Prior to establishing the model, each anesthetized rat was administered with 0.3% ofloxacin eye drops. Topyramide eye solution was used to dilate the pupil, and proparacaine hydrochloride was used as an eye anesthetic. A 30‐gauge needle containing a balanced salt solution was cannulated into the anterior chamber. […] The sham operation, which served as the control, was performed without elevating the IOP. After 60 min, the needle was withdrawn, the IOP was normal, the posterior segment was pale, and the blood supply was restored, confirming the successful establishment of the RIR injury model. […] During the experiment, each animal's body temperature was kept between 36.5 and 37°C.
At 24 h after establishing the RIR injury model, the rats were randomly divided into five groups: Sham, Saline, Rh‐GFFYE, Ac‐GFFYE, and Nap‐GFFYE. The methods for anesthesia and pupil dilation were the same as described above. Intravitreal injection was accomplished using a Hamilton syringe, and 4 µL of Rh‐GFFYE was injected to obtain a final rhein concentration of 20 µM in the vitreous humor.^[ [58] ^]
Before ERG recording, all the rats were randomly divided into five groups (Sham, Saline, Nap‐GFFYE, Ac‐GFFYE, and Rh‐GFFYE) and adapted in the dark for 12 h. […] For scotopic ERG, the responses to white flashes of 3.00 cd∙s∙m^−2 were recorded. […]

[13] = day 7 after single intravitreal injection of Rh-GFFYE, retina homogenate
[14] = 7 days after intravitreal injection, n = 6

| Compound | intracellular ROS level under OGD (R28 cells [1]) | recovery of cell viability (ATP content) under OGD (R28 cells [2]) | concentration at which rhein self‐assembles into a translucent hydrogel [3] | mitochondrial membrane potential (ΔΨm) under OGD (R28 cells [4]) | anti‐inflammatory effect (release of IL‐1β and IL‐6) [5] | IPL thickness after RIR injury (rat model of RIR injury [6]) | number of RGCs (BRN3A positive) compared with Saline group (rat model of RIR injury [7]) | concentration of rhein in retina at 21 d relative to day 7 ([8]; 21 d after single intravitreal injection) | concentration of rhein in the ischemic retina [8, 13] | concentration of rhein in the normal retina [8, 13] | toxicity on R28 cells (ATP and LDH levels) (R28 cells [9]) | morphology of the retina (H&E) ([10]; 7 d after intravitreal injection) | retinal function (ERG) of normal rats ([10]; 7 d after intravitreal injection, vs normal group, n = 6) | serum content of alanine aminotransferase (ALT) [10, 14] | serum content of aspartate aminotransferase (AST) [10, 14] | histological structures of main visceral organs (heart, liver, spleen, lung, kidney) ([10]; H&E, 7 days after intravitreal injection) | uptake in ischemic retina compared with control non‐ischemic eyes [11] | amplitudes of the oscillatory potentials (OPs) (rat model of RIR injury [12]) | scotopic ERG a and b wave amplitudes (rat model of RIR injury [12]) |
| --- | --- | --- | --- | --- | --- | --- | --- | --- | --- | --- | --- | --- | --- | --- | --- | --- | --- | --- | --- |
| O=C(O)c1cc(O)c2c(c1)C(=O)c1cccc(O)c1C2=O [rhein, 4,5‐dihydroxyanthraquinone‐2‐carboxylic acid] | significant ROS inhibition | no restorative effect | 14100 µM | recovered | reduced the release of these two inflammatory cytokines to some extent | – | – | – | – | – | – | – | – | – | – | – | – | – | – |
| Nap‐GFFYE [control peptide compound in which rhein is replaced with 1‐naphthylacetic acid (Nap)] | – | no restorative effect | – | no recovery | did not show anti‐inflammatory effects | did not ameliorate | No significant differences | – | – | – | – | – | – | – | – | – | – | – | – |
| O=C(O)CC[C@H](NC(=O)[C@H](Cc1ccc(O)cc1)NC(=O)[C@H](Cc1ccccc1)NC(=O)[C@H](Cc1ccccc1)NC(=O)CNC(=O)c1cc(O)c2c(c1)C(=O)c1cccc(O)c1C2=O)C(=O)O [Rh‐GFFYE] (X1-GFFYE-OH) | – | – | – | – | – | – | – | approximately one‐quarter of that at day 7 | 27.1 ng/g | 15.2 ng/g | no toxic effect | no significant change | not significantly changed | did not show intergroup differences | did not show intergroup differences | did not induce noticeable histological changes | increased | recovered | significant recovery |
